From patent US4988692A, “2,4-dioxo-5-phenyl-2,3,4,5-tetrahydro-1H-1,5-benzodiazepines” (Uclaf; Roussel, priority 1985, dated 1991) come the findings set out here.

Each structure is given as a SMILES string.

Experiment [1] deals with T1, Central CCK receptors (Rattus norvegicus, UniProt P30553).
T1 construct: The cortices of 20 male rats weighing 150 to 200 g were removed, and were ground up with Polytron in sucrose; from tissue; host or cells: rat cerebral cortex homogenate (washed membrane pellet)
T1 sequence (P30553 1-452): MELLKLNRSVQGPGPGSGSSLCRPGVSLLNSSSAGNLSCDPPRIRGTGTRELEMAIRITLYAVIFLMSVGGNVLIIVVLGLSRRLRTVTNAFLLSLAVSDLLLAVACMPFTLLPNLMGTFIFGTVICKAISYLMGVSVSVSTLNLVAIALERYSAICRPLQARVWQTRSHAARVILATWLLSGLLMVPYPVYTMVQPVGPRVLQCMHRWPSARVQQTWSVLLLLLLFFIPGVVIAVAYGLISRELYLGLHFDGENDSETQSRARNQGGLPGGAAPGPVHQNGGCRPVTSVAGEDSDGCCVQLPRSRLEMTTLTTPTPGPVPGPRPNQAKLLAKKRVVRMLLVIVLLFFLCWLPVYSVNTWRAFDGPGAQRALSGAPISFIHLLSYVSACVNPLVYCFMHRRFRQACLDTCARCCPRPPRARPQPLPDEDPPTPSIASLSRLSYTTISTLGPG
Briefly: Central receptors: 3H CCK8 binding, rat cortex homogenate. Particulars: 0.5 nM 3H CCK8, 25° C., 30 minutes. On the procedure: The cortices of 20 male rats weighing 150 to 200 g were removed, and were ground up with Polytron in sucrose 0.32M. After centrifuging, the supernatant was recovered and centrifuged. The residues were re-suspended in 120 ml of Hepes buffer pH 7.4 (Hepes 10 mM, NaCl 130 mM, MgCl2, 6H2 O 5 mM, bacitracin 250 mg/l., PMSF 1 mg/l), and re-centrifuged. The residues were taken up in 120 ml of Hepes buffer pH 7.4 and re-centrifuged at 30,000 g for 30 minutes. The residues thus obtained were taken up in 500 ml of Hepes buffer pH 7.4, which enabled 240 aliquots of 2 ml of homogenate to be obtained. The incubation was effected at 25° C. for 30 minutes in the presence of 0.5 nM of 3H CCK8 and the test product (10,000 μM for 1 dose, or with a range of 7 doses or of cold CCK8 (10^-6 M), which was the reference product). After returning the aliquots of the homogenate to 0° C., they were filtered on Whatman GF/B filters and the filters were washed with 3×5 ml of a Tris HCl 50 mM pH 7.4 buffer. The results are expressed is IC50 which is the concentration necessary to inhibit by 50% the fixed specific radioactivity.

The target of experiment [2] is T2, Peripheral CCK receptors (Rattus norvegicus, UniProt P30551).
T2 construct: The pancreases of 3 male rats weighing 150-200 g were removed and ground up with Polytron; from tissue; host or cells: rat pancreas homogenate (30,000 g pellet)
T2 sequence (P30551 1-444): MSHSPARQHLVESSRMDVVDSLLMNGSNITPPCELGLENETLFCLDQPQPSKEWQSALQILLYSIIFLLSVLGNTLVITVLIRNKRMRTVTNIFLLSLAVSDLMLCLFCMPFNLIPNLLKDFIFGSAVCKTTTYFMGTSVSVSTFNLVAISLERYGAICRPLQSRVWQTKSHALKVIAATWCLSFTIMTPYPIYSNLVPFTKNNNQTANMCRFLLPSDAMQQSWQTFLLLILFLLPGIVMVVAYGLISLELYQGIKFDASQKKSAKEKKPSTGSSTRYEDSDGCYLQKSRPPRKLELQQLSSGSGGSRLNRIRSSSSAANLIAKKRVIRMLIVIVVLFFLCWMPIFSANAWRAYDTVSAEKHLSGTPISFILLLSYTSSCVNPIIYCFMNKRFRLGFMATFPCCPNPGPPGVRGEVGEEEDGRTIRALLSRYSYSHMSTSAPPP
Put plainly: Peripheral receptors: 3H CCK8 binding, rat pancreas homogenate. Here is the method: The pancreases of 3 male rats weighing 150-200 g were removed and ground up with Polytron (4 grindings, speed 3, with an interval of 10 seconds between the grindings) and the homogenate was filtered through a gauze and then centrifuged at 30,000 g for 30 minutes. The residues obtained were taken up in 400 volumes (600 ml) of Tris 50 mM HCl pH 7.4 buffer containing BSA 2 g/l., bacitracin 0.1 mM, MgCl2 5 mM, dithiothreitol 5 mM. 2 ml aliquots of the homogenate were incubated at 25° C. for 60 minutes in the presence of […] 3H CCK8 and of the test product (10,000 μM for 1 dose, or with one range of 7 doses) and of cold CCK8 (10^-6 M) which was the reference product. After returning to 0° C., the aliquots were filtered on Whatman GF/B filters, pre-washed in a solution of polyethylene imine at 0.05% and washed with 3×5 ml of buffer Tris HCl 50 mM, pH 7.4. The results were expressed in IC50, the concentration necessary to inhibit by 50% the fixed specific radioactivity, IC50 n mol

The test system of experiment [3] is food consumption. Put plainly: Action on the alimentary intake in a rat. The format is in vivo. As to conditions: 10 mg/kg intraperitoneal, consumption followed hourly for 5 hours. On the procedure:
The tests were carried out on groups of 5 rats weighing 250 g±10 g and the animals were individually placed in cages with a trough as described by Fregly (J. Appl. Physiol Vol. 15 (1960), p. 539) which avoided wasting of the powdered foodstuffs. The rats were accustomed to taking their daily portion over 5 consecutive hours with as much drinking water as desired being offered in glass feeding bottles. The quantities of food ingested were determined individually by the weight of the troughs and the comsumptions were followed hourly for 5 hours after intraperitoneal administration of 10 mg/kg of the compound. The quantities consumed are expressed in g/100 g of body weight per hour. The averages are compared to those obtained with control animals by a DUNNETT test.

Experiment [4] deals with CCK8-induced contractions of isolated ileum. Briefly: Action on the isolated ileum of a guinea-pig (antagonism of CCK8 contractions). Particulars: product 10^-7 M, one minute contact, CCK8 1.10^-8 M. On the procedure: The test was carried out on fragments of ileum from male guinea-pigs placed under a tension of 1 g in a Krebs solution aerated with carbogen and maintained at 37° C. The contractions were recorded with a microdynamometer connected to a polygraph. The ileum was left at rest for 30 minutes and then CCK8 was added to the bath in a concentration of 1.10^-8 M, followed by rinsing. The test product was added to the bath, left in contact with the organ for one minute and then CCK8 (1.10^-8 M) was added to the bath. The possible antagonism was expressed by comparing the contractions caused by the CCK8 before and after contact with the product under test.

A word on the IC50: it is the concentration at which inhibition is half-maximal. As to `CN1C(=O)C(NC(=O)c2cc3ccccc3[nH]2)C(=O)N(c2ccccc2)c2cc(Cl)ccc21` (stereo not drawn) [Example 1, N-(7-chloro-2,4-dioxo-1-methyl-5-phenyl-2,3,4,5-tetrahydro-1H-1,5-benzodiazepin-3-yl)-1H-indole-2-carboxamide], the IC50 in experiment [1] was found to be 2200 nM; in experiment [2], 20 nM. In experiment [3], the “reduction of food consumption in relation to control animals (anorexigenic activity)” value was “more than 50%”.
Turning to `CN1C(=O)C(NC(=O)c2cc3ccccc3[nH]2)C(=O)N(c2ccccc2)c2ccccc21` (stereo not drawn) [Example 2], the half-maximal inhibitory concentration (IC50) in experiment [1] was over 10000 nM; in experiment [2], 14 nM. Besides, the “antagonism of contractions caused by CCK8” value in experiment [4] is listed as “significant antagonist activity”.
